Biological target: glutathione-S-transferase Pi 1 (GSTP1) (Homo sapiens, UniProt P09211)
Assay: CDNB-glutathione conjugation assay with pure GSTP1 after […] min pre-incubation
Assay type: biochemical

Chain of glutathione-S-transferase Pi 1 (GSTP1) (P09211 2-210): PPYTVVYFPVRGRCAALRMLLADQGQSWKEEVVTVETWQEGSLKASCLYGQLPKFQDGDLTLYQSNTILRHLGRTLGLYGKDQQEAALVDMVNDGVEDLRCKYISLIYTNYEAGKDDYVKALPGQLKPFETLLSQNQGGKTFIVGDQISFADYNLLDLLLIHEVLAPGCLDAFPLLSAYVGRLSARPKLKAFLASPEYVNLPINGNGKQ

## LAS17
  IC50: 500 nM
